Assay results taken from PubChem BioAssay (NCI).
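How tested: cells in 96-well plates exposed to compound for 48 hours at five concentrations. At the GI50, growth is halved. Definition used: TGI = concentration required for complete inhibition of growth.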

What was measured:
Assay in all cases: NCI tumour cell line growth inhibition, 48 h
[1] = tested on: SN12C renal
[2] = tested on: SF-295 CNS
[3] = tested on: NCI-H460 lung
[4] = tested on: HT29 colon
[5] = tested on: COLO 205 colon
[6] = tested on: OVCAR-4 ovarian
[7] = tested on: KM12 colon
[8] = tested on: NCI-H522 lung
[9] = tested on: UACC-257 melanoma
[10] = tested on: PC-3 prostate
[11] = tested on: MALME-3M melanoma
[12] = tested on: HOP-62 NSCLC
[13] = tested on: NCI/ADR-RES ovarian
[14] = tested on: HCT-116 colon
[15] = tested on: CAKI-1 renal
[16] = tested on: OVCAR-5 ovarian
[17] = tested on: MDA-MB-435
[18] = tested on: A549 NSCLC
[19] = tested on: MOLT-4 leukemia
[20] = tested on: HS 578T breast
[21] = tested on: SK-MEL-2 melanoma
[22] = tested on: U251 CNS
[23] = tested on: CCRF-CEM leukemia
[24] = tested on: HL-60(TB) leukemia
[25] = tested on: SW-620 colon
[26] = tested on: K-562 leukemia
[27] = tested on: DU-145 prostate
[28] = tested on: UACC-62 melanoma
[29] = tested on: ACHN renal
[30] = tested on: M14 melanoma
[31] = tested on: MCF7 breast
[32] = tested on: NCI-H226 lung
[33] = tested on: SR leukemia
[34] = tested on: OVCAR-8 ovarian
[35] = tested on: SF-539 CNS
[36] = tested on: NCI-H23 lung
[37] = tested on: SK-MEL-5 melanoma
[38] = tested on: OVCAR-3 ovarian
[39] = tested on: BT-549 breast
[40] = tested on: SNB-75 CNS
[41] = tested on: LOX IMVI melanoma
[42] = tested on: RPMI-8226 leukemia
[43] = tested on: 786-0 renal
[44] = tested on: SNB-19 CNS
[45] = tested on: HOP-92 NSCLC
[46] = tested on: RXF 393 renal
[47] = tested on: HCC-2998 colon
[48] = tested on: T-47D breast
[49] = tested on: HCT-15 colon
[50] = tested on: A498 renal
[51] = tested on: SF-268 CNS
[52] = tested on: IGROV1 ovarian
[53] = tested on: SK-MEL-28 melanoma
[54] = tested on: SK-OV-3 ovarian
[55] = tested on: EKVX NSCLC
[56] = tested on: UO-31 renal
[57] = tested on: TK-10 renal
[58] = tested on: MDA-MB-231 breast

`Cc1nn(CCO)c(C)c1N=[N+]([O-])c1c(C)nn(CCO)c1C` was tested, and the GI50 [1] was 6.3 µM, the TGI [1] was 23 µM and the GI50 [2] was 15.3 µM. The TGI [2] was 30 µM, the GI50 [3] was 17.8 µM and the TGI [3] was 37.8 µM. For the same compound, the GI50 [4] was 3.59 µM, the TGI [4] was 13.7 µM and the GI50 [5] was 0.296 µM. The TGI [5] was 0.802 µM, the GI50 [6] was 5.88 µM and the TGI [6] was 15.8 µM. It also gave a GI50 [7] of 12.6 µM, a TGI [7] of 26 µM and a GI50 [8] of 1.03 µM. It also gave a TGI [8] of 2.88 µM, a GI50 [9] of 1.69 µM and a TGI [9] of 3.5 µM. For the same compound, the GI50 [10] was 4.99 µM, the TGI [10] was 20.9 µM and the GI50 [11] was 0.723 µM. The TGI [11] was 2.4 µM, the GI50 [12] was 20.4 µM and the TGI [12] was > 57.9 µM. The GI50 [13] was 11.8 µM, the TGI [13] was 39 µM and the GI50 [14] was 2.12 µM. For the same compound, the GI50 [15] was 1.51 µM, the TGI [15] was 3.33 µM and the GI50 [16] was 11.3 µM. For the same compound, the TGI [16] was 24.2 µM, the GI50 [17] was 1.59 µM and the TGI [17] was 3.53 µM. It also gave a GI50 [18] of 14.8 µM, a TGI [18] of 36.2 µM and a GI50 [19] of 8.47 µM. For the same compound, the TGI [19] was 33.3 µM, the GI50 [20] was 17.6 µM and the TGI [20] was 53.1 µM. For the same compound, the GI50 [21] was 5.79 µM, the TGI [21] was 40.9 µM and the GI50 [22] was 7.42 µM. It also gave a TGI [22] of 20.6 µM, a GI50 [23] of 3.53 µM and a TGI [23] of 33.5 µM. It also gave a GI50 [24] of 2.5 µM, a TGI [24] of 9.3 µM and a GI50 [25] of 1.45 µM. For the same compound, the TGI [25] was 3.09 µM, the GI50 [26] was 2.19 µM and the TGI [26] was 7.13 µM. It also gave a GI50 [27] of 2.92 µM, a TGI [27] of 7.88 µM and a GI50 [28] of 8.48 µM. It also gave a TGI [28] of 22.2 µM, a GI50 [29] of 1.36 µM and a TGI [29] of 2.91 µM. For the same compound, the GI50 [30] was 1.88 µM, the TGI [30] was > 19.7 µM and the GI50 [31] was 2.64 µM. For the same compound, the TGI [31] was 8.36 µM, the GI50 [32] was 16.1 µM and the TGI [32] was 37 µM. For the same compound, the GI50 [33] was 1.8 µM, the TGI [33] was 6.86 µM and the GI50 [34] was 2.19 µM. The TGI [34] was 4.54 µM, the GI50 [35] was 2.13 µM and the TGI [35] was 5.51 µM. For the same compound, the GI50 [36] was 4.95 µM, the TGI [36] was 10.6 µM and the GI50 [37] was 11 µM. The TGI [37] was 23.3 µM, the GI50 [38] was 1.92 µM and the TGI [38] was 3.65 µM. The GI50 [39] was 2.13 µM, the TGI [39] was 6.48 µM and the GI50 [40] was 13.1 µM. For the same compound, the TGI [40] was 25.9 µM, the GI50 [41] was 3 µM and the TGI [41] was 7.69 µM. For the same compound, the GI50 [42] was 3.64 µM, the TGI [42] was 14.8 µM and the GI50 [43] was 10.1 µM. The TGI [43] was 41.5 µM, the GI50 [44] was 16.6 µM and the TGI [44] was 32.1 µM. The GI50 [45] was 1.83 µM, the TGI [45] was 7.19 µM and the GI50 [46] was 1.74 µM. The TGI [46] was 3.73 µM, the GI50 [47] was 13.7 µM and the TGI [47] was 27.2 µM. The GI50 [48] was 1.7 µM, the TGI [48] was 4.51 µM and the GI50 [49] was 2.4 µM. For the same compound, the TGI [49] was 6.5 µM, the GI50 [50] was 15.9 µM and the TGI [50] was 29.8 µM. It also gave a GI50 [51] of 15.6 µM, a TGI [51] of 31.2 µM and a GI50 [52] of 4.8 µM. The TGI [52] was 21.8 µM, the GI50 [53] was 2.84 µM and the TGI [53] was 7.19 µM. For the same compound, the GI50 [54] was 16.3 µM, the TGI [54] was 30.5 µM and the GI50 [55] was 5.62 µM. For the same compound, the TGI [55] was 20.6 µM, the GI50 [56] was 0.754 µM and the TGI [56] was 2.15 µM. The GI50 [57] was 1.64 µM, the TGI [57] was 3.43 µM and the GI50 [58] was 13.5 µM. It also gave a TGI [58] of 28.8 µM.
